For the data set, the system named is CHIKV. Type of data set: cell-based, chikungunya virus.

The substance “s9337 (GCTCTCCAACAATTACTAT; chemistry not given here) [reference compound]” showed a Score_si4 of -0.09.
Regarding “s8543 (CCTCAACAGTCACGTCAGA; chemistry not given here)”, the Score_si4 was -0.08.
Regarding “s17591 (CGATATGAACCTGACAGTA; chemistry not given here) [reference compound]”, the Score_si3 is given as -0.15.
Turning to “Hs_C14orf160_2 (ATGGAGTTACTGAAATGTATA; chemistry not given here) [reference compound]”, the Score_si2 was -1.06.
“Hs_PTX3_2 (sense AAGAAAGAAACTCACACTTAA; chemistry not given here)”: the Score_si1 is 1.48.
As for “Hs_CDK4_1 (sense CCGAACTGACCGGGAGATCAA; chemistry not given here)”, the Score_si2 amounted to 1.51.
Turning to “Hs_P4HB_2 (CTATTTCACAATCGAATTGAA; chemistry not given here)”, the Score_si3 stood at 1.09.
In turn, “Hs_NPAT_1 (ACCAATGCACATATAATTTAA; chemistry not given here) [reference compound]” showed a Score_si2 of -1.26.
“Hs_PSD3_2 (sense ACCAAACGTGTTTAAACTTAA; chemistry not given here) [reference compound]” showed a Score_si4 of -0.52.
Consider “Hs_FXC1_2 (sense CAAGTATTTGTTGGTTCATAA; chemistry not given here)”, for which the Score_si1 was 2.83.
Consider “Hs_ATP6V0C_2 (CTGGATGTTTATTTATAAAGA; chemistry not given here)”, for which the Score_si1 worked out at 3.5.
As to “s18271 (CCTCTTCACTAAGACCCAT; chemistry not given here)”, the Score_si3 was determined as 1.67.
In turn, “Hs_GSTP1_3 (sense TCCTTTCTCCAGGACCAATAA; chemistry not given here)” came in with a Score_si4 of -0.14.
The substance “Hs_NAG_1 (CAGAGGAAGATTGAAAGTGAA; chemistry not given here)” yielded a Score_si2 of 2.12.
Turning to “s4918 (sense GGCACTTACTATGACAATT; chemistry not given here)”, the Score_si3 stood at 1.02.
“Hs_P4HB_5 (CAGGACGGTCATTGATTACAA; chemistry not given here)”: the Score_si2 amounted to 1.15.
The substance “s10096 (GGTGTAAGATCAAAGAGAT; chemistry not given here)” gave a Score_si3 of 1.3.
As to “Hs_ASH2L_1 (CCGAGTAACTAACTTATTTAA; chemistry not given here)”, the Score_si2 stood at 1.07.
In turn, “Hs_HMMR_2 (sense AAGTTAAGTCTTCGGAATCAA; chemistry not given here)” returned a Score_si1 of 2.42.
“s18706 (sense GAATCTGAACGAACGATAT; chemistry not given here) [reference compound]” yielded a Score_si4 of -0.67.
In the case of “s923 (AATTCAAGCTATGAAGATA; chemistry not given here)”, the Score_si2 worked out at 1.99.
Consider “s10094 (AGATCAAAGAGATCCGCGA; chemistry not given here)”, for which the Score_si4 is listed as 0.28.
As for “s5569 (sense AGGCTGAAGCTAATAAGAA; chemistry not given here)”, the Score_si3 was found to be 0.16.
Regarding “Hs_CLCN6_2 (sense CCGGTGAATGTTATTGGAATT; chemistry not given here)”, the Score_si3 is recorded as -0.01.
In turn, “s6350 (sense GCCCATATACATTCTGCAA; chemistry not given here) [reference compound]” had a Score_si4 of -0.73.
“s10395 (sense GGACGACTTCTTTAAGTCA; chemistry not given here)” displayed a Score_si3 of 1.58.
For “s12245 (sense CCATCAGGACCACTATTAA; chemistry not given here)”, the Score_si4 is 0.57.
Consider “s5083 (sense CGTCGTCACTAACAGTCAA; chemistry not given here)”, for which the Score_si3 is given as 1.11.
“Hs_GLTSCR2_6 (sense CCGGAGCTTCCTACAATCCAT; chemistry not given here)” displayed a Score_si3 of 1.7.
In the case of “s33487 (GGTTATCAATGACGAGCAA; chemistry not given here)”, the Score_si3 was found to be 1.7.
Turning to “s9031 (CGACGACAGCTACTGGTTT; chemistry not given here)”, the Score_si4 turned out to be 0.9.
As for “Hs_THRAP6_6 (sense CTGAGATTGGTATATGACAAA; chemistry not given here) [reference compound]”, the Score_si1 is given as -1.48.
Substance “Hs_PP3856_1 (CTGGACAGTGGTGACCTGCTA; chemistry not given here)” returned a Score_si2 of 1.53.
Regarding “Hs_RAB3D_4 (sense AAGCAAGTTCTTGCCCAATCA; chemistry not given here)”, the Score_si2 is reported as 1.56.
Turning to “s4917 (sense GTGTATGAGTTTAGAGTCA; chemistry not given here)”, the Score_si2 is listed as 1.15.
“Hs_CDK4_3 (sense ACCCTGGTGTTTGAGCATGTA; chemistry not given here)” had a Score_si3 of 1.02.
Substance “s25186 (sense ACTTCTCCGTGATCCTGAA; chemistry not given here)” had a Score_si2 of 1.53.
In turn, “Hs_CAB39L_2 (GCCAATGTCTTTGGACTGTAA; chemistry not given here)” had a Score_si1 of 2.37.
As for “s195094 (sense CCTCTTCCACCGCTACTTC; chemistry not given here) [reference compound]”, the Score_si2 was -0.76.
Substance “s15686 (sense CCATCCACATGTACATCAA; chemistry not given here)” showed a Score_si2 of 1.49.
Turning to “Hs_TUSC1_1 (TCCCTGTACATCTAATATATA; chemistry not given here) [reference compound]”, the Score_si1 was -1.75.
Substance “Hs_CHD8_2 (sense AAGGATAAGAGGATACATCAA; chemistry not given here)” showed a Score_si3 of 1.53.
Substance “Hs_GFRA4_4 (sense CAGGAGGCATCTTGGTTGTAA; chemistry not given here)” displayed a Score_si3 of 1.57.
For the substance “s322 (GGTTGTCCTTGAGTAATAA; chemistry not given here)”, the Score_si1 amounted to 1.71.
With “s37918 (GAAGAGCACAAGAACCAGA; chemistry not given here)”, the Score_si3 is listed as 0.93.
Substance “Hs_SDFR1_9 (sense CTGGTACATAAAGATGAGTAA; chemistry not given here) [reference compound]” yielded a Score_si3 of -1.41.
In the case of “Hs_F25965_2 (ACCAGCTTCGTTACTCAGAAA; chemistry not given here)”, the Score_si3 is listed as 1.05.
“Hs_MGC11102_2 (CAGGTGGTTTGTTCTTTCTTA; chemistry not given here)”: the Score_si1 is recorded as 1.25.
The substance “Hs_APEX2_5 (ACGCTGCAGCACAACAATCAA; chemistry not given here) [reference compound]” gave a Score_si4 of -0.1.
In the case of “Hs_CNOT3_2 (sense ACGGCTGAGGGACCAAATCAA; chemistry not given here)”, the Score_si3 came to 1.32.
As to “Hs_PRPF4B_5 (sense TCGTCTGATGATAACCTTGAA; chemistry not given here)”, the Score_si1 turned out to be 2.38.
The substance “Hs_NPEPL1_4 (CAGAATTCACTTGAGGTTCAA; chemistry not given here)” had a Score_si3 of 1.44.
For “Hs_EZH2_6 (CAGGATGGTACTTTCATTGAA; chemistry not given here)”, the Score_si1 stood at 1.77.
Take “s12471 (sense CTTCTGTACCCATCAGTAA; chemistry not given here)”: the Score_si3 turned out to be 1.63.
In the case of “Hs_DC-UbP_2 (CAGGCTTTGAGACTCATGTAA; chemistry not given here)”, the Score_si1 came out at 1.59.
As to “Hs_GBF1_1 (sense AAGAATATTTACATCATTCAA; chemistry not given here)”, the Score_si4 is 1.75.
Regarding “s50642 (sense CCTTCATGGTGGGACTGTA; chemistry not given here)”, the Score_si3 is 0.69.
As to “s38779 (CCAAGATGACTGTGAATAA; chemistry not given here)”, the Score_si3 turned out to be 0.42.
In turn, “Hs_UMPS_4 (AAGCTTCTCAGGCTTATGCAA; chemistry not given here)” came in with a Score_si3 of 1.59.
Take “s25038 (sense GGTCTTTACTAGGTGTATT; chemistry not given here) [reference compound]”: the Score_si4 is listed as -0.18.
Still for that read-out and setting: for “Hs_RXRA_3 (sense TCCGTACGATTGTCTCTGAAA; chemistry not given here)” the value was 0.81.
The substance “Hs_MAZ_2 (CCGCGACGTCTACCACCTGAA; chemistry not given here)” displayed a Score_si1 of 2.43.
Regarding “Hs_DKFZp547E052_2 (CAGGAGATAGGACATCATTTA; chemistry not given here)”, the Score_si1 is recorded as 2.29.
In turn, “s17590 (CAACAGTTCTCAGACCAAA; chemistry not given here) [reference compound]” gave a Score_si2 of -0.8.
In the case of “s9339 (TCACTTCTAGTTTTACTTT; chemistry not given here) [reference compound]”, the Score_si3 is reported as -0.69.
“Hs_NPAT_2 (AAGGCACATCTTCAAACAATA; chemistry not given here) [reference compound]” had a Score_si1 of -1.61.
Substance “s26872 (sense GGGTTGACCTCATCCTCGA; chemistry not given here)” had a Score_si4 of 1.69.
For “s10857 (sense GAATCCGGTTTGGAATATA; chemistry not given here)”, the Score_si4 is recorded as -0.29.
On to “s14380 (sense GGACCACGTCAAGACTTGT; chemistry not given here) [reference compound]”, for which the Score_si3 was -0.84.
“Hs_ASH2L_3 (TTGGAACACCCGTTTAACAAA; chemistry not given here)” displayed a Score_si1 of 1.11.
In turn, “Hs_EXOSC1_1 (TTCATTCTCTTGAGTAATAAA; chemistry not given here) [reference compound]” returned a Score_si4 of 0.51.
Take “s16046 (GCACAGATCCTTCCGTTTA; chemistry not given here) [reference compound]”: the Score_si3 is on record as -0.45.

The record behind these values is PMC4865845, “A human genome-wide loss-of-function screen identifies effective chikungunya antiviral drugs” (Nature Communications, 2016).
